Three molecules from patent publication US4272437A, “Antibacterial agents, and 4-thio azetidinone intermediates” (priority 1979, dated 1981) can be followed below.

The subject of one test is Proteus vulgaris A21559. The test can be described thus: MIC, tube dilution, Proteus vulgaris A21559. It counts as cell-based. The conditions noted are these: Proteus vulgaris, A21559, Proteus vulgaris A21559; overnight 37° C.; read-out: Minimum Inhibitory Concentration (M.I.C.). The text has this: (§1) Representative compounds of the present invention were subjected to in vitro antibiotic screening against a variety of microorganisms.

A further test relates to E. coli A-15119. The test can be described thus: MIC, tube dilution, Escherichia coli A15119. It counts as cell-based. The settings on record: Escherichia coli, A15119, E. coli A15119; overnight 37° C.; read-out: Minimum Inhibitory Concentration (M.I.C.).
Excerpt: as §1

For the next test, the system named is Str. faecalis A-20688. Nature of the test: MIC, tube dilution, Streptococcus faecalis A20688. It counts as cell-based. The conditions noted are these: Enterococcus faecalis, A20688, Str. faecalis A20688; overnight 37° C.; read-out: Minimum Inhibitory Concentration (M.I.C.).
Excerpt: as §1

Another test relates to K. pneumoniae A-15130. The test can be described thus: MIC, tube dilution, Klebsiella pneumoniae A15130. It counts as cell-based. The conditions noted are these: Klebsiella pneumoniae, A15130, K. pneumoniae A15130; overnight 37° C.; read-out: Minimum Inhibitory Concentration (M.I.C.).
Excerpt: as §1

In another test the test system is Str. pyogenes A-9604. The test can be described thus: MIC, tube dilution, Streptococcus pyogenes A9604. The class given is cell-based. The settings on record: Streptococcus pyogenes, A9604, Str. pyogenes A9604; overnight 37° C., Nutrient Broth; read-out: Minimum Inhibitory Concentration (M.I.C.).
Excerpt: as §1

A further test has as its system Pr. morganii A-15153. The test can be described thus: MIC, tube dilution, Proteus morganii A15153. It counts as cell-based. The settings on record: Morganella morganii, A15153, Proteus morganii A15153; overnight 37° C.; read-out: Minimum Inhibitory Concentration (M.I.C.).
Excerpt: as §1

The next test concerns E. coli A-20341-1. Nature of the test: MIC, tube dilution, Escherichia coli A20341-1. The class given is cell-based.
Excerpt: as §1

For test [1], the system named is Staph. aureus A-9537 and 50% serum. The test can be described thus: MIC, tube dilution, Staph. aureus A9537 + 50% serum. It counts as cell-based, Staphylococcus aureus. The settings on record: Staphylococcus aureus, overnight 37° C., read-out: Minimum Inhibitory Concentration (M.I.C.).
Excerpt: as §1

For the next test, the system named is Str. pneumoniae A-9585. Nature of the test: MIC, tube dilution, Streptococcus pneumoniae A9585. The conditions noted are these: Streptococcus pneumoniae, A9585, Str. pneumoniae A9585; overnight 37° C., Nutrient Broth; read-out: Minimum Inhibitory Concentration (M.I.C.). The class given is cell-based.
Excerpt: as §1

A further test deals with Ent. cloacae A-9656. Nature of the test: MIC, tube dilution, Enterobacter cloacae A9656. The class given is cell-based. The conditions noted are these: Enterobacter cloacae, A9656, Enterobacter cloacae A9656; overnight 37° C.; read-out: Minimum Inhibitory Concentration (M.I.C.).
Excerpt: as §1

For a further test, the system named is Pr. mirabilis A-9900. The test can be described thus: MIC, tube dilution, Proteus mirabilis A9900. It counts as cell-based. The conditions noted are these: Proteus mirabilis, A9900, Proteus mirabilis A9900; overnight 37° C.; read-out: Minimum Inhibitory Concentration (M.I.C.).
Excerpt: as §1

Test [2] relates to Klebsiella species A20468. The test can be described thus: MIC, tube dilution, Klebsiella species A20468. It counts as cell-based. The settings on record: Klebsiella species (K. pneumoniae) A20468; overnight 37° C.; read-out: Minimum Inhibitory Concentration (M.I.C.).
Excerpt: as §1

Another test has as its system Proteus rettgeri A21203. The test can be described thus: MIC, tube dilution, Proteus rettgeri A21203. The class given is cell-based. The conditions noted are these: Providencia rettgeri, A21203, Proteus rettgeri A21203; overnight 37° C.; read-out: Minimum Inhibitory Concentration (M.I.C.).
Excerpt: as §1

The subject of a further test is Ent. cloacae A-9659. Nature of the test: MIC, tube dilution, Enterobacter cloacae A9659. The class given is cell-based. The conditions noted are these: Enterobacter cloacae, A9659, Enterobacter cloacae A9659; overnight 37° C.; read-out: Minimum Inhibitory Concentration (M.I.C.).
Excerpt: as §1

Test [3] concerns Staph. aureus (Meth-Res) A-15097. Nature of the test: MIC, tube dilution, Staphylococcus aureus A15097 (Meth-Res). It counts as cell-based. The conditions noted are these: Staphylococcus aureus, overnight 37° C.
Excerpt: as §1

A further test relates to Staph. aureus A-9537. Nature of the test: MIC, tube dilution, Staphylococcus aureus A9537. The conditions noted are these: Staphylococcus aureus, A9537, Staph. aureus A9537; overnight 37° C., Nutrient Broth; read-out: Minimum Inhibitory Concentration (M.I.C.). It counts as cell-based.
Excerpt: as §1

Another test concerns Ser. marcescens A-20019. The test can be described thus: MIC, tube dilution, Serratia marcescens A20019. It counts as cell-based. The settings on record: Serratia marcescens, A20019, Serratia marcescens A20019; overnight 37° C.; read-out: Minimum Inhibitory Concentration (M.I.C.).
Excerpt: as §1

The subject of test [4] is Staph. aureus (Pen-Res) A-9606. Nature of the test: MIC, tube dilution, Staphylococcus aureus A9606 (Pen-Res). The conditions noted are these: Staphylococcus aureus, Staph. aureus A9606 (Pen-Res); overnight 37° C.; read-out: Minimum Inhibitory Concentration (M.I.C.). It counts as cell-based.
Excerpt: as §1

In another test the test system is Ps. aeruginosa A-21213. The test can be described thus: MIC, tube dilution, Pseudomonas aeruginosa A21213. The class given is cell-based. The settings on record: overnight 37° C., read-out: Minimum Inhibitory Concentration (M.I.C.).
Excerpt: as §1

In a further test the test system is Ps. aeruginosa A-9843A. Nature of the test: MIC, tube dilution, Pseudomonas aeruginosa A9843A. The conditions noted are these: Pseudomonas aeruginosa, A9843A, read-out: Minimum Inhibitory Concentration (M.I.C.), Pseudomonas aeruginosa A9843A; overnight 37° C. It counts as cell-based.
Excerpt: as §1

A further test relates to Pr. vulgaris A-9716. The test can be described thus: MIC, tube dilution, Proteus vulgaris / Proteus mirabilis A9716. The class given is cell-based, Proteus vulgaris (name changed to Proteus mirabilis). The settings on record: Proteus vulgaris, A9716, Proteus vulgaris / Proteus mirabilis A9716; overnight 37° C.; read-out: Minimum Inhibitory Concentration (M.I.C.).
Excerpt: as §1

The mark [5] stands for this setting: Escherichia coli, A203411, E. coli A20341-1; overnight 37° C.; read-out: Minimum Inhibitory Concentration (M.I.C.).
Setting [6] is: Staph. aureus A15097 (Meth-Res), read-out: Minimum Inhibitory Concentration (M.I.C.).
[7] abbreviates: Pseudomonas aeruginosa, A21213, Pseudomonas aeruginosa A21213.

Values after ≈ are worked out from the molar mass of the structure shown. Read-outs that look alike come from different tables or passages of the source.

`N=C(Cc1ccccc1)NCC1=C(C(=O)O)N2C(=O)CC2S1` (centres unmarked) [Example 107]: the MIC is 63 µg/mL (≈ 199 µM) in the test with Proteus vulgaris A21559; 63 µg/mL (≈ 199 µM) with E. coli A-15119; more than 63 µg/mL in the test on Str. faecalis A-20688; more than 63 µg/mL with K. pneumoniae A-15130; 0.5 µg/mL (≈ 1.58 µM) with Str. pyogenes A-9604; 63 µg/mL (≈ 199 µM) in the test on Pr. morganii A-15153. Besides, the MIC in the test on E. coli A-20341-1 (setting [5]) is more than 63 µg/mL; in test [1] it was 16 µg/mL; with Str. pneumoniae A-9585, 0.5 µg/mL (≈ 1.58 µM); in the test with Ent. cloacae A-9656, 63 µg/mL (≈ 199 µM); with Pr. mirabilis A-9900, 63 µg/mL (≈ 199 µM); in [2], more than 63 µg/mL. The MIC with Proteus rettgeri A21203 was 63 µg/mL (≈ 199 µM); with Ent. cloacae A-9659, more than 63 µg/mL; in test [3] (setting [6]), more than 63 µg/mL; in the test on Staph. aureus A-9537, 0.5 µg/mL (≈ 1.58 µM); in the test on Ser. marcescens A-20019, 63 µg/mL (≈ 199 µM); in test [4] it was 32 µg/mL (≈ 101 µM). Further, the MIC in the test on Ps. aeruginosa A-21213 (setting [7]) and in the test on Ps. aeruginosa A-9843A was 63 µg/mL (≈ 199 µM) each time.

Turning to `N=C(NCC1=C(C(=O)O)N2C(=O)CC2S1)c1ccccc1` (centres unmarked) [Example 108, 2-Phenylimidoylaminomethylpenem-3-carboxylic Acid], the MIC with Proteus vulgaris A21559 came to 125 µg/mL (≈ 412 µM); in the test with E. coli A-15119 it was 63 µg/mL (≈ 208 µM); in the test on Str. faecalis A-20688, 125 µg/mL (≈ 412 µM); in the test on K. pneumoniae A-15130, 125 µg/mL (≈ 412 µM); in the test on Str. pyogenes A-9604 it was 0.25 µg/mL (≈ 0.824 µM); in the test on Pr. morganii A-15153, 63 µg/mL (≈ 208 µM). The MIC with E. coli A-20341-1 (setting [5]) was more than 125 µg/mL; in test [1] it was 16 µg/mL; with Str. pneumoniae A-9585, 0.25 µg/mL (≈ 0.824 µM); in the test with Ent. cloacae A-9656, 125 µg/mL (≈ 412 µM); in the test with Pr. mirabilis A-9900 it was 63 µg/mL (≈ 208 µM); in [2], more than 125 µg/mL. For the same molecule, the MIC in the test with Proteus rettgeri A21203 is 63 µg/mL (≈ 208 µM); in the test on Ent. cloacae A-9659, 125 µg/mL (≈ 412 µM); in [3] (setting [6]), more than 125 µg/mL; in the test on Staph. aureus A-9537, 0.25 µg/mL (≈ 0.824 µM); in the test with Ser. marcescens A-20019 it was 125 µg/mL (≈ 412 µM); in [4], 16 µg/mL (≈ 52.7 µM). In addition, the values for the MIC in the test on Ps. aeruginosa A-21213 (setting [7]) and in the test with Ps. aeruginosa A-9843A were 125 µg/mL (≈ 412 µM) and 63 µg/mL (≈ 208 µM), respectively.

As to `CC1(CC2=C(C(=O)O)N3C(=O)CC3S2)OCCO1` (centres unmarked) [Preparation 22, 2-(Acetonyl-ethylene-ketal)penem-3-carboxylic Acid], the MIC in the test with Str. faecalis A-20688 stood at 125 µg/mL (≈ 461 µM); in the test with K. pneumoniae A-15130, 32 µg/mL (≈ 118 µM); in the test with Pr. vulgaris A-9716, 4 µg/mL (≈ 14.7 µM); with Str. pyogenes A-9604, 0.25 µg/mL (≈ 0.922 µM); in the test on Pr. morganii A-15153, 8 µg/mL (≈ 29.5 µM); in the test on E. coli A-20341-1 (Escherichia coli, A203411; E. coli A20341-1; overnight 37° C.; read-out: Minimum Inhibitory Concentration (M.I.C.)), 125 µg/mL (≈ 461 µM). For the same molecule, the MIC in test [1] was 32 µg/mL; with Str. pneumoniae A-9585, 0.13 µg/mL (≈ 0.479 µM); in the test on Ent. cloacae A-9656 it was 63 µg/mL (≈ 232 µM); with Pr. mirabilis A-9900 it was 16 µg/mL (≈ 59 µM); in test [2], 125 µg/mL (≈ 461 µM); in the test on Proteus rettgeri A21203 it was 16 µg/mL (≈ 59 µM). Moreover, the MIC in the test with Ent. cloacae A-9659 is 63 µg/mL (≈ 232 µM); in [3] (read-out: Minimum Inhibitory Concentration (M.I.C.), Staph. aureus A15097 (Meth-Res)), more than 125 µg/mL; with Staph. aureus A-9537, 0.5 µg/mL (≈ 1.84 µM); in the test on Ser. marcescens A-20019, 63 µg/mL (≈ 232 µM); in test [4], 32 µg/mL (≈ 118 µM); in the test on Ps. aeruginosa A-21213 (Pseudomonas aeruginosa A21213), 125 µg/mL (≈ 461 µM). The MIC in the test on Ps. aeruginosa A-9843A amounted to 125 µg/mL (≈ 461 µM).
